# In US20190364896A1, “SYNERGISTIC WEED CONTROL FROM APPLICATIONS OF PYRIDINE CARBOXYLIC ACID HERBICIDES AND ALS INHIBITORS” (Dow AgroSciences LLC, priority 2014, published 2019):
# Like-named read-outs stand apart in the source and are kept apart here.
# Experiments:
# [1] = tested on: wild pansy (Viola tricolor, VIOTR); assay: Postemergence herbicidal activity, greenhouse trial (visual injury 0-100%); assay type: in vivo; details: Viola tricolor, post-emergence, read-out: % visual injury Obs
# Outline: (§1)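 Foliar track-sprayer application, 187 L/ha, 2–3 true-leaf plants; spray solution = acetone/DMSO 97:3 stock diluted into 1.5% v/v Agri-dex. Component (a) in g ae/ha, (b) in g ai/ha. Visual rating 0 (no injury)–100 (complete kill) at 20-22 d vs solvent blank.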
# [2] = tested on: winter rape (Brassica napus, BRSNW); assay: as above; assay type: in vivo
# [3] = tested on: sunflower (Helianthus annuus, HELAN); assay: as above; assay type: in vivo
# [4] = tested on: brown mustard (Brassica juncea, BRSJU); assay: as above; assay type: in vivo; details: bensulfuron 17.5 g ai/ha
# [5] = tested on: nutsedge (Cyperus esculentus, CYPES); assay: as above; assay type: in vivo; details: Cyperus, post-emergence, read-out: % visual injury Obs
# Outline: (§2)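 Greenhouse-grown plants at the second to third true leaf stage were sprayed with two-way mixtures in 1.5% v/v Agri-dex crop oil concentrate at 187 L/ha; rates in g ae/ha for component (a) and g ai/ha for component (b). Injury scored visually 0–100% versus solvent-blank controls after 20–22 d, with expected mixture effects from Colby's equation.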
# [6] = tested on: poinsettia (Euphorbia heterophylla, EPHHL); assay: as above; assay type: in vivo
# Outline: as §2
# [7] = tested on: winter wheat (Triticum aestivum, TRZAW); assay: Postemergence crop injury (phytotoxicity), greenhouse trial (visual injury 0-100%)
# Experimental: (§3) Seeds of the desired test plant species were planted in Sun Gro MetroMix® 306 planting mixture, which typically has a pH of 6.0 to 6.8 and an organic matter content of about 30 percent, in plastic pots with a surface area of 103.2 square centimeters (cm^2). […] The plants were grown for 7-36 days (d) in a greenhouse with an approximate 14-hour (h) photoperiod which was maintained at about 23° C. during the day and 22° C. during the night. Nutrients and water were added on a regular basis and supplemental lighting was provided with overhead metal halide 1000-Watt lamps as necessary. The plants were employed for testing when they reached the second or third true leaf stage.
# (§4) Weighed amounts of technical material were dissolved in a volume of 97:3 volume per volume (v/v) acetone/dimethyl sulfoxide (DMSO) to stock solutions. […] The concentrated stock solutions were diluted with an aqueous mixture of 1.5% v/v of Agri-dex crop oil concentrate to provide the appropriate application rates. Compound requirements are based upon a 12 milliliter (mL) application volume at a rate of 187 liters per hectare (L/ha). Spray solutions of the experimental compound mixtures were prepared by adding the stock solutions to the appropriate amount of dilution solution to form a 12 mL spray solution in two-way combinations. Formulated compounds were applied to the plant material with an overhead Mandel track sprayer equipped with 8002E nozzles calibrated to deliver 187 L/ha over an application area of 0.503 square meters (m^2) at a spray height of 18 inches (43 centimeters (cm)) above average plant canopy. Control plants were sprayed in the same manner with the solvent blank. Application rates for component (a) are in g ae/ha, and application rates for component (b) are in g ai/ha.
# (§5) The treated plants and control plants were placed in a greenhouse as described above and watered by sub-irrigation to prevent wash-off of the test compounds. After 20-22 d, the condition of the test plants as compared with that of the control plants was determined visually and scored on a scale of 0 to 100 percent where 0 corresponds to no injury and 100 corresponds to complete kill. The condition of the test plants was compared with that of the control plants as determined visually and scored on a scale of 0 to 100 percent, where 0 corresponds to no injury and 100 corresponds to complete kill. Colby's equation was used to determine the herbicidal effects expected from the mixtures.
# Compound 2 was combined with florasulam and applied to winter wheat (TRZAW) and the phytotoxicity of the herbicidal composition was measured. In addition, the efficacy of the herbicidal composition on poinsettia (Euphorbia heterophylla, EPHHL) and […] (Cyperus esculentus, CYPES) was evaluated.
# Weighed amounts of technical or formulated material (emulsifiable concentrate (EC) or soluble concentrate (SL)) were dissolved in a volume of 97:3 volume per volume (v/v) acetone/dimethyl sulfoxide (DMSO) to stock solutions. […] The concentrated stock solutions were diluted with an aqueous mixture of 1.5% v/v of Agri-dex crop oil concentrate to provide the appropriate application rates. Compound requirements are based upon a 12 milliliter (mL) application volume at a rate of 187 liters per hectare (L/ha). Spray solutions of the experimental compound mixtures were prepared by adding the stock solutions to the appropriate amount of dilution solution to form a 12 mL spray solution in two-way combinations. […]
# [8] = tested on: kochia (Kochia scoparia, KCHSC); assay: Postemergence herbicidal activity, greenhouse trial (visual injury 0-100%); assay type: in vivo
# Outline: as §1
# [9] = tested on: pigweed (Amaranthus retroflexus, AMARE); assay: as above; assay type: in vivo
# Outline: as §1
# [10] = tested on: common lambsquarters (Chenopodium album L., CHEAL); assay: as above; assay type: in vivo
# Outline: as §1
# [11] = tested on: ivyleaf morning-glory (Ipomoea hederacea, IPOHE); assay: as above; assay type: in vivo
# Outline: as §1
# [12] = tested on: common rice (Oryza sativa, ORYSA); assay: Postemergence crop injury (phytotoxicity), greenhouse trial (visual injury 0-100%)
# Experimental: as §3
# (§6) Weighed amounts of technical or formulated material (emulsifiable concentrate (EC) or soluble concentrate (SL)) were dissolved in a volume of 97:3 volume per volume (v/v) acetone/dimethyl sulfoxide (DMSO) to stock solutions. […] The concentrated stock solutions were diluted with an aqueous mixture of 1.5% v/v of Agri-dex crop oil concentrate to provide the appropriate application rates. Compound requirements are based upon a 12 milliliter (mL) application volume at a rate of 187 liters per hectare (L/ha). Spray solutions of the experimental compound mixtures were prepared by adding the stock solutions to the appropriate amount of dilution solution to form a 12 mL spray solution in two-way combinations. Formulated compounds were applied to the plant material with an overhead Mandel track sprayer equipped with 8002E nozzles calibrated to deliver 187 L/ha over an application area of 0.503 square meters (m^2) at a spray height of 18 inches (43 centimeters (cm)) above average plant canopy. Control plants were sprayed in the same manner with the solvent blank. Application rates for component (a) are in g ae/ha, and application rates for component (b) are in g ai/ha.
# as §5
# (§7) Compound 1 was formulated as an EC and was combined with florasulam, cloransulam, diclosulam, flumetsulam, penoxsulam, or pyroxsulam. Compound 2 was formulated as an EC and was combined with florasulam or pyroxsulam. The mixtures were applied to winter wheat (TRZAW), common rice (ORYSA), maize (ZEAMX), and the phytotoxicity of the herbicidal compositions was measured. In addition, the efficacy of the herbicidal compositions on blackgrass (Alopecurus myosuroides, ALOMY), pigweed (Amaranthus retrollexus, AMARE), wild oat (Avena fatua, AVEFA), common lambsquarters (Chenopodium album L., CHEAL), thistle (Cirsium arvense CIRAR), nutsedge (Cyperus esculentus, CYPES), barnyardgrass (Echinochloa crus-galli, ECHCG), poinsettia (Euphorbia heterophylla, EPHHL), ivyleaf morning-glory (Ipomoea hederacea, IPOHE), kochia (Kochia scoparia, KCHSC), wild buckwheat (Polygonum convolvulus, POLCO), grain sorghum (Sorghum vulgare, SORVU), chickweed (Stellaria media, STEME), wild pansy (Viola tricolor, VIOTR), was evaluated.
# (§8) Weighed amounts of technical material were dissolved in a volume of 97:3 volume per volume (v/v) acetone/dimethyl sulfoxide (DMSO) to stock solutions. […] The concentrated stock solutions were diluted with an aqueous mixture of 1.5% v/v of Agri-dex crop oil concentrate to provide the appropriate application rates. Compound requirements are based upon a 12 milliliter (mL) application volume at a rate of 187 liters per hectare (L/ha). […]
# [13] = tested on: maize (Zea mays, ZEAMX); assay: as above
# Experimental: as §3, §6, §5, §7, §8
# [14] = tested on: thistle (Cirsium arvense, CIRAR); assay: Postemergence herbicidal activity, greenhouse trial (visual injury 0-100%); assay type: in vivo; details: Cirsium arvense, post-emergence, read-out: % visual injury Obs
# Outline: as §1
# [15] = tested on: wild buckwheat (Polygonum convolvulus, POLCO); assay: as above; assay type: in vivo; details: Fallopia convolvulus, post-emergence, 11.2 g ai/ha; read-out: % visual injury Obs
# Outline: as §1
# [16] = tested on: spring rape (Brassica napus, BRSNN); assay: as above; assay type: in vivo; details: 11.2 g ai/ha
# [17] = tested on: turnip (Brassica rapa, BRSRR); assay: as above; assay type: in vivo; details: 11.2 g ai/ha
# Experimental: as §3, §4, §5
# (§9) Compound 1 was formulated as an EC and was combined with imazamox, imazamethabenz, imazapic, imazapyr or imazethapyr. The mixtures were applied to winter wheat (TRZAW) and/or maize (ZEAMX), and the phytotoxicity of the herbicidal compositions was measured. In addition, the efficacy of the herbicidal compositions on blackgrass (Alopecurus myosuroides, ALOMY), wild oat (Avena fatua, AVEFA), winter rape (Brassica napus, BRSNW), spring rape (Brassica napus, BRSNN), turnip (Brassica rapa, BRSRR), thistle (Cirsium arvense, CIRAR), large crabgrass (Digitaria sanguinalis, DIGSA), pigweed (Amaranthus retrollexus, AMARE), common lambsquarters (Chenopodium album L., CHEAL), poinsettia (Euphorbia heterophylla, EPHHL), ivyleaf morning-glory (Ipomoea hederacea, IPOHE), kochia (Kochia scoparia, KCHSC), wild buckwheat (Polygonum convolvulus, POLCO), grain sorghum (Sorghum vulgare, SORVU), chickweed (Stellaria media, STEME), wild pansy (Viola tricolor, VIOTR), sunflower (Helianthus annuus, HELAN), giant foxtail (Setaria faberi, SETFA), soybean (Glycine max, GLXMA), rutabaga (Brassica napus var. napobrassica, BRSNA) and barnyardgrass (Echinochloa crus-galli, ECHCG) was evaluated.
# [18] = tested on: barnyardgrass (Echinochloa crus-galli, ECHCG); assay: as above; assay type: in vivo
# Outline: as §1
# [19] = tested on: blackgrass (Alopecurus myosuroides, ALOMY); assay: as above; assay type: in vivo; details: 17.5 g ai/ha
# Outline: as §1
# [20] = tested on: wild oat (Avena fatua, AVEFA); assay: as above; assay type: in vivo
# Outline: as §1
# [21] = tested on: rutabaga (Brassica napus var. napobrassica, BRSNA); assay: as above; assay type: in vivo; details: 17.5 g ai/ha
# Experimental: as §3, §4, §5, §9
# [22] = tested on: large crabgrass (Digitaria sanguinalis, DIGSA); assay: as above; assay type: in vivo; details: 17.5 g ai/ha
# [23] = tested on: chickweed (Stellaria media, STEME); assay: as above; assay type: in vivo; details: 100 g ai/ha
# Outline: as §1
# [24] = tested on: grain sorghum (Sorghum vulgare, SORVU); assay: as above; assay type: in vivo; details: 100 g ai/ha
# Outline: as §1
# [25] = tested on: soybean (Glycine max, GLXMA); assay: as above; assay type: in vivo; details: 100 g ai/ha
# Experimental: as §3, §4, §5, §9
molecule,measurement,setting,value
COC(=O)c1ccccc1CS(=O)(=O)NC(=O)Nc1nc(OC)cc(OC)n1,pest or weed control at 17.5 g/ha,"[1]; VIOTR, bensulfuron 17.5 g ai/ha",0%
same,% visual injury Obs,"[2]; BRSNW, bensulfuron 17.5 g ai/ha",70%
same,% visual injury Obs,"[3]; HELAN, bensulfuron 17.5 g ai/ha",10%
same,% visual injury Obs,[4],93%
"COc1ncc(F)c2nc(S(=O)(=O)Nc3c(F)cccc3F)nn12 [Florasulam, florasulam]",pest or weed control at 1.25 g/ha,[5],15%
same,pest or weed control at 2.5 g/ha,[5],75%
same,pest or weed control at 1.25 g/ha,"[6]; Euphorbia heterophylla, post-emergence, read-out: % visual injury Obs",0%
same,% visual injury Obs,[7]; 1.25 g ai/ha,0%
same,% visual injury Obs,[7]; 2.5 g ai/ha,0%
same,pest or weed control at 2.5 g/ha,"[8]; Bassia scoparia, post-emergence, read-out: % visual injury Obs",60%
same,pest or weed control at 1.25 g/ha,"[9]; Amaranthus retroflexus, post-emergence, read-out: % visual injury Obs",75%
same,pest or weed control at 1.25 g/ha,"[10]; Chenopodium album, post-emergence, read-out: % visual injury Obs",0%
same,pest or weed control at 1.25 g/ha,"[11]; Ipomoea hederacea, post-emergence, read-out: % visual injury Obs",98%
same,% visual injury Obs,[12]; 1.25 g ai/ha,0%
same,% visual injury Obs,[12]; 2.5 g ai/ha,0%
same,% visual injury Obs,[13]; 1.25 g ai/ha,0%
same,% visual injury Obs,[13]; 2.5 g ai/ha,0%
"COCc1cnc(C2=NC(C)(C(C)C)C(=O)N2)c(C(=O)O)c1 (centres unmarked) [Imazamox, imazamox]",pest or weed control at 11.2 g/ha,[14]; 11.2 g ai/ha,70%
same,pest or weed control at 11.2 g/ha,[15],65%
same,% visual injury Obs,[16],75%
same,% visual injury Obs,[17],70%
"CCc1cnc(C2=NC(C)(C(C)C)C(=O)N2)c(C(=O)O)c1 (centres unmarked) [Imazethapyr, imazethapyr]",pest or weed control at 17.5 g/ha,[14]; 17.5 g ai/ha,30%
same,pest or weed control at 17.5 g/ha,"[18]; Echinochloa crus-galli, post-emergence, 17.5 g ai/ha, read-out: % visual injury Obs",70%
same,% visual injury Obs,[19],10%
same,% visual injury Obs,[20]; 17.5 g ai/ha,10%
same,pest or weed control at 17.5 g/ha,[1]; 17.5 g ai/ha,5%
same,% visual injury Obs,[21],20%
same,% visual injury Obs,[2]; 17.5 g ai/ha,75%
same,% visual injury Obs,[22],30%
imazamethabenz,% visual injury Obs,[6]; 100 g ai/ha,50%
same,% visual injury Obs,[8]; 100 g ai/ha,0%
same,% visual injury Obs,[9]; 100 g ai/ha,0%
same,% visual injury Obs,[18]; 100 g ai/ha,5%
same,% visual injury Obs,[23],10%
same,% visual injury Obs,[10]; 100 g ai/ha,20%
same,% visual injury Obs,[24],0%
same,% visual injury Obs,[11]; 100 g ai/ha,0%
same,% visual injury Obs,[20]; 100 g ai/ha,20%
same,% visual injury Obs,[25],30%
same,% visual injury Obs,[2]; 100 g ai/ha,65%
same,% visual injury Obs,[3]; 100 g ai/ha,5%
